Data published in paper PMC3694096, “Development of Novel In Vivo Chemical Probes to Address CNS Protein Kinase Involvement in Synaptic Dysfunction” (PLoS ONE, 2013).
Where two headings read alike, the source gives them in different places.

Experiments:
Assay in all cases: Kinome profiler screen
Assay type in all cases: biochemical
ALK = target: T1, ALK (Homo sapiens, UniProt Q9UM73); conditions: at 20,000 nM inhibitor; kinase activity remaining
T1 construct: purchased Millipore KinaseProfiler

Axl = target: T2, Axl (Homo sapiens, UniProt P30530); conditions: at 20,000 nM inhibitor; kinase activity remaining
T2 construct: purchased Millipore KinaseProfiler

CaMKI = target: T3, CaMKI (Homo sapiens, UniProt Q14012); conditions: at 20,000 nM inhibitor; kinase activity remaining
T3 construct: purchased Millipore KinaseProfiler
T3 sequence (Q14012 whole entry): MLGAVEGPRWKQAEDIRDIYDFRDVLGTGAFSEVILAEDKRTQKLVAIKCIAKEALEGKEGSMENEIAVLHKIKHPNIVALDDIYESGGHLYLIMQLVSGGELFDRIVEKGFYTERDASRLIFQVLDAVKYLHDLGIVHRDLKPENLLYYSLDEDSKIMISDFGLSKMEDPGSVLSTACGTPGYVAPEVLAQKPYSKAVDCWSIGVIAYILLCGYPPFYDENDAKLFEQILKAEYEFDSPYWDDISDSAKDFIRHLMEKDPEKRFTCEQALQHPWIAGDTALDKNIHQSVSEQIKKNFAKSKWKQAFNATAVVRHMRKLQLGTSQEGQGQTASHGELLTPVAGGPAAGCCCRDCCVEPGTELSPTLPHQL

CHK1 = target: T4, CHK1 (Homo sapiens, UniProt O14757); conditions: at 20,000 nM inhibitor; kinase activity remaining
T4 construct: purchased Millipore KinaseProfiler
T4 sequence (O14757 whole entry): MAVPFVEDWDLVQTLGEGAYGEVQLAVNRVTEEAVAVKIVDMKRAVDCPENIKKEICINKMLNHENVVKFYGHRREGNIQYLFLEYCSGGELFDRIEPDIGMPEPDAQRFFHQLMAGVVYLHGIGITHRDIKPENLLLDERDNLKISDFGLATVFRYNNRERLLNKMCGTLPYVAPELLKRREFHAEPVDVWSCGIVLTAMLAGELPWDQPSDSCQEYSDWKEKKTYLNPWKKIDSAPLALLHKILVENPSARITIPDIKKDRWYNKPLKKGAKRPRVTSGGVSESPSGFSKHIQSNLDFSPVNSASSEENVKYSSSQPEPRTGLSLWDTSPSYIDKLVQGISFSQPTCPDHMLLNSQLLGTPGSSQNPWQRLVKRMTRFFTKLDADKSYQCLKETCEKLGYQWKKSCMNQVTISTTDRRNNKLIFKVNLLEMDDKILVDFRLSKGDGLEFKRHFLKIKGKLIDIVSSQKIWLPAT

DAPK2 = target: T5, DAPK2 (Homo sapiens, UniProt Q9UIK4); conditions: at 20,000 nM inhibitor; kinase activity remaining
T5 construct: purchased Millipore KinaseProfiler
T5 sequence (Q9UIK4 whole entry): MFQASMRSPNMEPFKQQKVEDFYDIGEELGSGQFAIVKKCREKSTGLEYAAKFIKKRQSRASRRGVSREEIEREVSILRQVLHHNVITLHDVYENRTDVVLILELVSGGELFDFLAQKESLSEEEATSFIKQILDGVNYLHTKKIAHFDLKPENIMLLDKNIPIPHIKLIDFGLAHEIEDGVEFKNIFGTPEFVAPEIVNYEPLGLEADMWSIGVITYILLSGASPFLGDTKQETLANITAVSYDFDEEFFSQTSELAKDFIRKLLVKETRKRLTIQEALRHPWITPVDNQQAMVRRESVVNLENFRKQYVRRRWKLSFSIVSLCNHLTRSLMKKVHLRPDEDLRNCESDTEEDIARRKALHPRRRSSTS

DDR2 = target: T6, DDR2 (Homo sapiens, UniProt Q16832)
T6 construct: purchased Millipore
T6 sequence (Q16832 22-855): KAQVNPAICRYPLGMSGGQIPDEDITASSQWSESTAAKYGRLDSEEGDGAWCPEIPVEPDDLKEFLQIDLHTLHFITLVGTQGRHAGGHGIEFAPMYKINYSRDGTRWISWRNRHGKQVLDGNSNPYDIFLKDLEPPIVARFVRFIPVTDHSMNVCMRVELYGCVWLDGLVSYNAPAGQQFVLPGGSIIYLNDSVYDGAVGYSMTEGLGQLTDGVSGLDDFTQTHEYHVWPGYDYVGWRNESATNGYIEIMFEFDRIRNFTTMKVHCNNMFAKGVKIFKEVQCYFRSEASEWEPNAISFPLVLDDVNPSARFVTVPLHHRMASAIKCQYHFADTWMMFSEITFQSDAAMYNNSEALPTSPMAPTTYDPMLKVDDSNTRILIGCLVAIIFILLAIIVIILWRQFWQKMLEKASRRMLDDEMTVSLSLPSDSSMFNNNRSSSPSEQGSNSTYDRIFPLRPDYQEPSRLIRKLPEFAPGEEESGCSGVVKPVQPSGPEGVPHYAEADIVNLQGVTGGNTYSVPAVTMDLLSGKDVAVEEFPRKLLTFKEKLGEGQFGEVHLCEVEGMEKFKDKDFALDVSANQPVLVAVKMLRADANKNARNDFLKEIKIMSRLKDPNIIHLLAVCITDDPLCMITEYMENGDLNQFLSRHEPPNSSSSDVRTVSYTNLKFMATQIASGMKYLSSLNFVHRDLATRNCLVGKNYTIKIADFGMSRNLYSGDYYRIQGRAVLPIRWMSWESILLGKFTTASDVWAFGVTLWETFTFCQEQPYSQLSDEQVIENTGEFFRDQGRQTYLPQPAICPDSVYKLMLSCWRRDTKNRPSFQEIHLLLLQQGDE

EGFR = target: T7, EGFR (Homo sapiens, UniProt P00533); conditions: at 20,000 nM inhibitor; kinase activity remaining
T7 construct: purchased Millipore KinaseProfiler

EGFR(L861Q) = target: T8, EGFR(L861Q) (Homo sapiens, UniProt P00533, L861Q); conditions: at 20,000 nM inhibitor; kinase activity remaining
T8 construct: purchased Millipore KinaseProfiler

EGFR(T790M,L858R) = target: T9, EGFR(T790M,L858R) (Homo sapiens, UniProt P00533, L858R/T790M); conditions: at 20,000 nM inhibitor; kinase activity remaining
T9 construct: purchased Millipore KinaseProfiler

EphA1 = target: T10, EphA1 (Homo sapiens, UniProt P21709); conditions: at 20,000 nM inhibitor; kinase activity remaining
T10 construct: purchased Millipore KinaseProfiler

GSK3β = target: T11, GSK3β (Homo sapiens, UniProt P49841); conditions: at 20,000 nM inhibitor; kinase activity remaining
T11 construct: purchased Millipore KinaseProfiler

IKKβ = target: T12, IKKβ (Homo sapiens, UniProt O14920); conditions: at 20,000 nM inhibitor; kinase activity remaining
T12 construct: purchased Millipore KinaseProfiler

Itk = target: T13, Itk (Homo sapiens, UniProt Q08881); conditions: at 20,000 nM inhibitor; kinase activity remaining
T13 construct: purchased Millipore KinaseProfiler

JAK3 = target: T14, JAK3 (Homo sapiens, UniProt P52333); conditions: at 20,000 nM inhibitor; kinase activity remaining
T14 construct: purchased Millipore KinaseProfiler

JNK3 = JNK3 (Homo sapiens, UniProt P53779); conditions: for activity at 20 µM: at 20,000 nM inhibitor, kinase activity remaining
JNK3, sequence (P53779 whole entry): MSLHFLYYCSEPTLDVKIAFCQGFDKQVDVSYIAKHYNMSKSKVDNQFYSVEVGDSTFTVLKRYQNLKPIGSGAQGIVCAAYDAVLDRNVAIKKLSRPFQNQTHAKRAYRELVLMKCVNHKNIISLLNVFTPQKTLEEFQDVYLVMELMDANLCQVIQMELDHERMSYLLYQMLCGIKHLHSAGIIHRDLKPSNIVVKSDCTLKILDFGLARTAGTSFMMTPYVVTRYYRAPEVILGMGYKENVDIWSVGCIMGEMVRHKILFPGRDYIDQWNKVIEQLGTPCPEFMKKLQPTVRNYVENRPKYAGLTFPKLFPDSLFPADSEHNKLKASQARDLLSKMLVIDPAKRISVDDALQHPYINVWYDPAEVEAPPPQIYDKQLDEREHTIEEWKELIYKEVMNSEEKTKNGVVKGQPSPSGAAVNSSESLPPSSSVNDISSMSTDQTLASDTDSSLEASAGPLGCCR

MAPK2 = target: T15, MAPK2 (Homo sapiens, UniProt P28482); conditions: at 20,000 nM inhibitor; kinase activity remaining
T15 construct: purchased Millipore KinaseProfiler

MAPK2(m) = target: T16, MAPK2(m) (Mus musculus, UniProt P63085); conditions: at 20,000 nM inhibitor; kinase activity remaining
T16 construct: purchased Millipore KinaseProfiler

Mnk2 = target: T17, Mnk2 (Homo sapiens, UniProt Q9HBH9); conditions: at 20,000 nM inhibitor; kinase activity remaining
T17 construct: purchased Millipore KinaseProfiler
T17 sequence (Q9HBH9 whole entry): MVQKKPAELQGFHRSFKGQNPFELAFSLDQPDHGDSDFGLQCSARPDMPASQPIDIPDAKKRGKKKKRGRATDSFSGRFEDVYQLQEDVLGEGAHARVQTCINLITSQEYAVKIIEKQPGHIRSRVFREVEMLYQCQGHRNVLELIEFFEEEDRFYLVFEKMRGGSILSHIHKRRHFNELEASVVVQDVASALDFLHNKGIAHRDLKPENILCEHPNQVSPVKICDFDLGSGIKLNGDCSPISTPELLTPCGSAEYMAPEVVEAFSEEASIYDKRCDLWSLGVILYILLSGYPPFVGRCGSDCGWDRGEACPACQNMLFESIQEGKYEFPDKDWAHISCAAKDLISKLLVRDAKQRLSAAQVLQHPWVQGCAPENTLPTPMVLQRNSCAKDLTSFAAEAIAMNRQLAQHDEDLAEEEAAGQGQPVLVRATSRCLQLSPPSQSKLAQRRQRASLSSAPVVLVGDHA

MST1 = target: T18, MST1 (Homo sapiens, UniProt Q13043); conditions: at 20,000 nM inhibitor; kinase activity remaining
T18 construct: purchased Millipore KinaseProfiler

mTOR = target: T19, mTOR (Homo sapiens, UniProt P42345); conditions: at 20,000 nM inhibitor; kinase activity remaining
T19 construct: purchased Millipore KinaseProfiler

PAK5 = target: T20, PAK5 (Homo sapiens, UniProt Q9P286); conditions: at 20,000 nM inhibitor; kinase activity remaining
T20 construct: purchased Millipore KinaseProfiler
T20 sequence (Q9P286 whole entry): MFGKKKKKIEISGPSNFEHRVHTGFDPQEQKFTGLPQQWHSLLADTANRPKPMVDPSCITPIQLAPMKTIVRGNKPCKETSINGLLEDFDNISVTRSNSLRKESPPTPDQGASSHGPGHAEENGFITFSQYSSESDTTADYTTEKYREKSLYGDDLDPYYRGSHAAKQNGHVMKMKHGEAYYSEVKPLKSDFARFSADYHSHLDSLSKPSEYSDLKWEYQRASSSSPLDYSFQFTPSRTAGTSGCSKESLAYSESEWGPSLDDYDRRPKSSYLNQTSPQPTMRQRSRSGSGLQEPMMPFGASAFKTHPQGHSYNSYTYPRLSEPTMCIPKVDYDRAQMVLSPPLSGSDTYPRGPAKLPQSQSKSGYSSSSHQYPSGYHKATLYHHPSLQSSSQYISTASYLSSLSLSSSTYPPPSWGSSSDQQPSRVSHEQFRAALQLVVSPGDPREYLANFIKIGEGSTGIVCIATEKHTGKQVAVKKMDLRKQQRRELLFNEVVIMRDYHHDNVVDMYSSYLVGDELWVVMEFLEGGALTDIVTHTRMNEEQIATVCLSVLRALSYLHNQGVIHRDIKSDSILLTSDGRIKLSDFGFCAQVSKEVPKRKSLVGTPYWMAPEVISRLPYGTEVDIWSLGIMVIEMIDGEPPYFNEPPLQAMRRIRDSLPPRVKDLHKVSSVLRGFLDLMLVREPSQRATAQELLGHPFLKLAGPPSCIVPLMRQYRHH

PAR-1Bα = target: T21, PAR-1Bα (Homo sapiens, UniProt Q7KZI7); conditions: at 20,000 nM inhibitor; kinase activity remaining
T21 construct: purchased Millipore KinaseProfiler

PI3 Kinase (p120γ) = target: T22, PI3 Kinase (p120γ) (Homo sapiens, UniProt P48736); conditions: at 20,000 nM inhibitor; kinase activity remaining
T22 construct: purchased Millipore KinaseProfiler

PKBα = target: T23, PKBα (Homo sapiens, UniProt P31749); conditions: at 20,000 nM inhibitor; kinase activity remaining
T23 construct: purchased Millipore KinaseProfiler

PKBβ = target: T24, PKBβ (Homo sapiens, UniProt P31751); conditions: at 20,000 nM inhibitor; kinase activity remaining
T24 construct: purchased Millipore KinaseProfiler

PKCβI = target: T25, PKCβI (Homo sapiens, UniProt P05771); conditions: at 20,000 nM inhibitor; kinase activity remaining
T25 construct: purchased Millipore KinaseProfiler

PKCγ = target: T26, PKCγ (Homo sapiens, UniProt P05129); conditions: at 20,000 nM inhibitor; kinase activity remaining
T26 construct: purchased Millipore KinaseProfiler

PKCη = target: T27, PKCη (Homo sapiens, UniProt P24723); conditions: at 20,000 nM inhibitor; kinase activity remaining
T27 construct: purchased Millipore KinaseProfiler

PKD2 = target: T28, PKD2 (Homo sapiens, UniProt Q9BZL6); conditions: at 20,000 nM inhibitor; kinase activity remaining
T28 construct: purchased Millipore KinaseProfiler

ROCK-II(r) = target: T29, ROCK-II(r) (Rattus norvegicus, UniProt Q62868); conditions: at 20,000 nM inhibitor; kinase activity remaining
T29 construct: purchased Millipore KinaseProfiler

TAO1 = target: T30, TAO1 (Homo sapiens, UniProt Q7L7X3); conditions: at 20,000 nM inhibitor; kinase activity remaining
T30 construct: purchased Millipore KinaseProfiler

VRK2 = target: T31, VRK2 (Homo sapiens, UniProt Q86Y07); conditions: at 20,000 nM inhibitor; kinase activity remaining
T31 construct: purchased Millipore KinaseProfiler

Yes = target: T32, Yes (Homo sapiens, UniProt P07947); conditions: at 20,000 nM inhibitor; kinase activity remaining
T32 construct: purchased Millipore KinaseProfiler
T32 sequence (P07947 whole entry): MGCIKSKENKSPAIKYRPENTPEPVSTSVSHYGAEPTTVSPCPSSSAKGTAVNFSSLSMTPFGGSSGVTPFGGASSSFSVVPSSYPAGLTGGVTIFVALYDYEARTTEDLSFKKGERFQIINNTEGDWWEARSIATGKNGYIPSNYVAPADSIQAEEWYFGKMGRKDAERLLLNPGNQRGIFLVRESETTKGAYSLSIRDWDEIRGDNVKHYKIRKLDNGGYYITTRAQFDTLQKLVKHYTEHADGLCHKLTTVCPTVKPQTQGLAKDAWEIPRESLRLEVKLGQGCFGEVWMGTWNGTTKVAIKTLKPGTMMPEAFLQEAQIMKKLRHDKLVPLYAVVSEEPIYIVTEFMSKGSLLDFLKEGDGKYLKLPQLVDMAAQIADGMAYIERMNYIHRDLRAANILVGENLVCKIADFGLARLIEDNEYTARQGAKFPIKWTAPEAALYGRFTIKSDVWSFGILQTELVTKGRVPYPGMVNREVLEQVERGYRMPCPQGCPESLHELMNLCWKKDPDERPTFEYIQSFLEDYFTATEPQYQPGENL

T1 sequence (Q9UM73 19-1620): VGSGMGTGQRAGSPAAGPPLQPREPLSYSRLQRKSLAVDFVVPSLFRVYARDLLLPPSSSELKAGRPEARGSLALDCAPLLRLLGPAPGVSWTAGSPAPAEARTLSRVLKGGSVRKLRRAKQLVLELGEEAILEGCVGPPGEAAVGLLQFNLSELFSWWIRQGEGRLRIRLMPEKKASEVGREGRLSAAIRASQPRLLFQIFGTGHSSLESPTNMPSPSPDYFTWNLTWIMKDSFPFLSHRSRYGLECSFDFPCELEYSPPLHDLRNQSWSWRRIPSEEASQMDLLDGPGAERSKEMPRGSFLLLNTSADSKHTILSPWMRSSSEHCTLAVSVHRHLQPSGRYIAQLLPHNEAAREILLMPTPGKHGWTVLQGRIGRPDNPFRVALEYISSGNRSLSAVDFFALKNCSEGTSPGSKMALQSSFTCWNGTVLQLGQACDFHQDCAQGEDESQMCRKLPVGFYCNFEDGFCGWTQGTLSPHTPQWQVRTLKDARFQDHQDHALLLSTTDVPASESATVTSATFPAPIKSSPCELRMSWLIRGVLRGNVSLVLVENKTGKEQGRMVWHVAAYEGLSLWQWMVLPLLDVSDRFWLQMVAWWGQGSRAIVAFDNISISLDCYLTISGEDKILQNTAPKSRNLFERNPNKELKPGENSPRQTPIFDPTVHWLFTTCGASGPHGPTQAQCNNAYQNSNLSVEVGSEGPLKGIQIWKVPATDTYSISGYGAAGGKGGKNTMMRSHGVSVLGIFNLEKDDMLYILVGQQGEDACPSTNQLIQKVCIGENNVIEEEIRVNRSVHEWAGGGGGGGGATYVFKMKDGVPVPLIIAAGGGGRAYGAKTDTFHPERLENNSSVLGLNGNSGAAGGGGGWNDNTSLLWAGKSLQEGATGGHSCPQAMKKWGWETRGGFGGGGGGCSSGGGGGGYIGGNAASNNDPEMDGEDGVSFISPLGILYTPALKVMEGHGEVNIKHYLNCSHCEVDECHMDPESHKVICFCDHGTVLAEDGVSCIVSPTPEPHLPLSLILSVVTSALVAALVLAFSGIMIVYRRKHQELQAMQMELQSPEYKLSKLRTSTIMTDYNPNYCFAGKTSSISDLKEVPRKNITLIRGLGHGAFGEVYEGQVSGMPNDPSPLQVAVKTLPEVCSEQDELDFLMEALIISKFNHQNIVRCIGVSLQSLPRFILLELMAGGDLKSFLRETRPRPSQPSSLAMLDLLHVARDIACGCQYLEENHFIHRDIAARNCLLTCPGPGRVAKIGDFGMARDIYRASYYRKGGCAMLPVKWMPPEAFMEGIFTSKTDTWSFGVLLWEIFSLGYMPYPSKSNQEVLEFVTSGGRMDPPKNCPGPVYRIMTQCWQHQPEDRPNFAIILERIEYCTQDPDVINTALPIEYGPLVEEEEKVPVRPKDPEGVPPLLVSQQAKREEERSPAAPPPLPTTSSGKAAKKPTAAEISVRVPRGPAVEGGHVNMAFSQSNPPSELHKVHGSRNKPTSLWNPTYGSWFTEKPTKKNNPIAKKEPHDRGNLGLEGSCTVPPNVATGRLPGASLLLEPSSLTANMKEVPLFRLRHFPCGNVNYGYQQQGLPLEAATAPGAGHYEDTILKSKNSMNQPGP

Question: How did the activity at 20 µM (ALK) turn out when `CN(C)c1cc(-c2ccncc2)c(-c2ccc3ccccc3c2)nn1` [MW108, N, N-dimethyl-6-(naphthalen-2-yl)-5-(pyridin-4-yl)pyridazin-3-amine] was run?
Answer: 105%

Question: And the activity at 20 µM (Axl)?
Answer: 106%

Question: What about the activity at 20 µM (CaMKI) of the same compound?
Answer: 101%

Question: What about the activity at 20 µM (CHK1) of the same compound?
Answer: 94%

Question: What about the activity at 20 µM (DAPK2) of the same compound?
Answer: 101%

Question: And the IC50 (DDR2)?
Answer: 2860 nM

Question: What about the activity at 20 µM (DDR2) of the same compound?
Answer: 11%

Question: And the activity at 20 µM (EGFR)?
Answer: 79%

Question: What about the activity at 20 µM (EGFR(L861Q)) of the same compound?
Answer: 49%

Question: What about the activity at 20 µM (EGFR(T790M,L858R)) of the same compound?
Answer: 40%

Question: What about the activity at 20 µM (EphA1) of the same compound?
Answer: 97%

Question: What about the activity at 20 µM (GSK3β) of the same compound?
Answer: 97%

Question: And the activity at 20 µM (IKKβ)?
Answer: 98%

Question: And the activity at 20 µM (Itk)?
Answer: 90%

Question: What about the activity at 20 µM (JAK3) of the same compound?
Answer: 90%

Question: What about the IC50 (JNK3) of the same compound?
Answer: 1260 nM

Question: And the activity at 20 µM (JNK3)?
Answer: 5%

Question: What about the activity at 20 µM (MAPK2) of the same compound?
Answer: 113%

Question: And the activity at 20 µM (MAPK2(m))?
Answer: 109%

Question: What about the activity at 20 µM (Mnk2) of the same compound?
Answer: 99%

Question: And the activity at 20 µM (MST1)?
Answer: 105%

Question: And the activity at 20 µM (mTOR)?
Answer: 92%

Question: What about the activity at 20 µM (PAK5) of the same compound?
Answer: 102%

Question: What about the activity at 20 µM (PAR-1Bα) of the same compound?
Answer: 97%

Question: And the activity at 20 µM (PI3 Kinase (p120γ))?
Answer: 101%

Question: What about the activity at 20 µM (PKBα) of the same compound?
Answer: 99%

Question: What about the activity at 20 µM (PKBβ) of the same compound?
Answer: 98%

Question: And the activity at 20 µM (PKCβI)?
Answer: 92%

Question: And the activity at 20 µM (PKCγ)?
Answer: 93%

Question: What about the activity at 20 µM (PKCη) of the same compound?
Answer: 88%

Question: And the activity at 20 µM (PKD2)?
Answer: 78%

Question: And the activity at 20 µM (ROCK-II(r))?
Answer: 97%

Question: What about the activity at 20 µM (TAO1) of the same compound?
Answer: 92%

Question: What about the activity at 20 µM (VRK2) of the same compound?
Answer: 83%

Question: What about the activity at 20 µM (Yes) of the same compound?
Answer: 63%

Question: For `CN(C)c1cc(-c2ccncc2)c(-c2cccc3ccccc23)nn1` [MW181, N,N-dimethyl-6-(naphthalen-1-yl)-5-(pyridin-4-yl)pyridazin-3-amine], which activity at 20 µM (ALK) is on record?
Answer: 107%

Question: And the activity at 20 µM (Axl)?
Answer: 99%

Question: What about the activity at 20 µM (CaMKI) of the same compound?
Answer: 101%

Question: What about the activity at 20 µM (CHK1) of the same compound?
Answer: 115%

Question: What about the activity at 20 µM (DAPK2) of the same compound?
Answer: 106%

Question: And the activity at 20 µM (DDR2; at 20,000 nM inhibitor, kinase activity remaining, read-out: % Activity)?
Answer: 86%

Question: What about the activity at 20 µM (EGFR) of the same compound?
Answer: 103%

Question: What about the activity at 20 µM (EGFR(L861Q)) of the same compound?
Answer: 56%

Question: And the activity at 20 µM (EGFR(T790M,L858R))?
Answer: 80%

Question: What about the activity at 20 µM (EphA1) of the same compound?
Answer: 76%

Question: And the activity at 20 µM (GSK3β)?
Answer: 92%

Question: And the activity at 20 µM (IKKβ)?
Answer: 88%

Question: And the activity at 20 µM (Itk)?
Answer: 91%

Question: And the activity at 20 µM (JAK3)?
Answer: 103%

Question: What about the activity at 20 µM (JNK3) of the same compound?
Answer: 12%

Question: What about the IC50 (JNK3; concentration-dependent follow-up of profiler hit, read-out: IC50) of the same compound?
Answer: 2400 nM

Question: What about the activity at 20 µM (MAPK2) of the same compound?
Answer: 97%

Question: What about the activity at 20 µM (MAPK2(m)) of the same compound?
Answer: 106%

Question: What about the activity at 20 µM (Mnk2) of the same compound?
Answer: 99%

Question: And the activity at 20 µM (MST1)?
Answer: 94%

Question: And the activity at 20 µM (mTOR)?
Answer: 109%

Question: And the activity at 20 µM (PAK5)?
Answer: 104%

Question: What about the activity at 20 µM (PAR-1Bα) of the same compound?
Answer: 106%

Question: What about the activity at 20 µM (PI3 Kinase (p120γ)) of the same compound?
Answer: 100%

Question: What about the activity at 20 µM (PKBα) of the same compound?
Answer: 90%

Question: And the activity at 20 µM (PKBβ)?
Answer: 102%

Question: And the activity at 20 µM (PKCβI)?
Answer: 104%

Question: And the activity at 20 µM (PKCγ)?
Answer: 96%

Question: And the activity at 20 µM (PKCη)?
Answer: 104%

Question: What about the activity at 20 µM (PKD2) of the same compound?
Answer: 78%

Question: What about the activity at 20 µM (ROCK-II(r)) of the same compound?
Answer: 92%

Question: And the activity at 20 µM (TAO1)?
Answer: 98%

Question: And the activity at 20 µM (VRK2)?
Answer: 86%

Question: What about the activity at 20 µM (Yes) of the same compound?
Answer: 87%
